Test results as given in US10626113B2, “Phosphodiesterase inhibitors and uses thereof” (THE TRUSTEES OF COLUMBIA UNIVERSITY IN THE CITY OF NEW YORK, priority 2012, dated 2020).
Like-named read-outs stand apart in the source and are kept apart here.

Key:
[1] = target: PDE5 (Homo sapiens (Human), UniProt O76074); experiment: PDE5 inhibition assay (BPS PDE assay kit, fluorescence polarization); format: biochemical; conditions: Table 1; 100 nM FAM-cGMP
Description: Materials and Methods: PDE5 inhibition was assayed at BPS Bioscience (San Diego, Calif.) using BPS PDE assay kits (BPS Catalog number 60300, enzyme lot 090810). Test compounds were supplied as liquid solutions of 10 mM concentration in DMSO. Sildenafil, used as a standard was dissolved in DMSO. Intermediate dilutions were 10% DMSO in PDE assay buffer and tests at ranges from 0.1 to 100 nM. 0.1 ng of enzyme was used per reaction, and the substrate was 100 nM FAM-cGMP.
Assay conditions: A series of dilutions of the test compounds were prepared with 10% DMSO in assay buffer and 5 μl of the dilution was added to a 50 μl reaction so that the final concentration of DMSO is 1% in all of reactions. The enzymatic reactions were conducted at room temperature for 60 minutes in a 50 μl mixture containing PDE assay buffer, 100 nM FAM-cAMP or 100 nM FAM-cGMP, a PDE enzyme, and the test compound. After the enzymatic reaction, 100 μl of a binding solution (1:100 dilution of the binding agent with the binding agent diluent) was added to each reaction and the reaction was performed at room temperature for 60 minutes. Fluorescence intensity was measured at an excitation of 485 nm and an emission of 528 nm using a Tecan Infinite M1000 microplate reader.
Data analysis: PDE activity assays were performed in duplicate at each concentration. Fluorescence intensity is converted to fluorescence polarization using the Tecan Magellan6 software. The fluorescence polarization data were analyzed using the computer software, Graphpad Prism. The fluorescence polarization (FPt) in absence of the compound in each data set was defined as 100% activity. In the absence of PDE and the compound, the value of fluorescent polarization (FPb) in each data set was defined as 0% activity. The percent activity in the presence of the compound was calculated according to the following equation: % activity=(FP−FPb)/(FPt−FPb)×100%, where FP=the fluorescence polarization in the presence of the compound.
The values of % activity versus a series of compound concentrations were then plotted using non-linear regression analysis of Sigmoidal dose-response curve generated with the equation Y=B+(T−B)/1+10^((LogEC50-X)×Hill Slope), where Y=percent activity, B=minimum percent activity, T=maximum percent activity, X=logarithm of compound and Hill Slope=slope factor or Hill coefficient. The IC50 value was determined by the concentration causing a half-maximal percent activity.

[2] = system: LTP at the CA3-CA1 connection of hippocampal slices; experiment: Long-term potentiation in hippocampal slices, compound in bath perfusion; design: species or system mice; conditions: 50 nM bath perfusion
[3] = system: APP/PS1 mice; experiment: 2-day radial arm water maze (reference memory); format: in vivo; conditions: 3 mg/kg i.p. for 3 weeks
Description: The radial arm water maze task, a hybrid of the classic Morris Water Maze and the radial arm land maze, was performed as described in J. Alamed, D. M. Wilcock, D. M. Diamond, M. N. Gordon, D. Morgan, Two-day radial-arm water maze learning and memory task; robust resolution of amyloid-related memory deficits in transgenic mice, Nat. Prot. 1 (2006) 1671-1679, herein incorporated by reference in its entirety. The mouse had to swim in 6 alleys (arms) radiating from a central area until it found a hidden (submerged) platform at the end of one of the arms, based on visual cues placed in the room. The first day of the protocol was a training day on which mice were trained to identify the platform location by alternating between a visible and a hidden platform in a goal arm. The final 3 trials on that day and all 15 trials on day 2 used a hidden escape platform to force mice to use spatial cues to identify the location of the goal arm. […] The number of incorrect arm entries (entries to arms with no platform) was counted. […] Failure to select an arm after 15 sec was counted as an error and the mouse was returned to the start arm. […] For data analysis, averages for each mouse were calculated using blocks of 3 trials. […]

[4] = Pharmacokinetic study in mice; format: in vivo; conditions: 25 mg/kg i.p.
[5] = Acute toxicity study with histology; format: in vivo; conditions: 120 or 240 mg/kg, i.p.
Description: Brain, muscle, kidney, and liver were harvested from each mouse, and tissue from each organ was examined histologically by a board-certified pathologist for signs of toxicity.

COc1ccc(CNc2c3c(nc4ccc(C#N)cc24)CCN(C(C)=O)C3)cc1Cl [Compound H, 2-acetyl-10-[(3-chloro-4-methoxybenzyl)amino]-1,2,3,4-tetrahydrobenzo[b][1,6]naphthyridine-8-carbonitrile]
IC50 [1]: 0.056 nM | effect on LTP of WT slices [2]: no effect | effect on reference memory of WT mice (2-day RAWM) [3]: no effect | Cmax, brain ([4]; male C57Bl6 mice): 492.25 ng/g | Tmax, brain ([4]; male C57Bl6 mice): 15 min | Tmax, plasma ([4]; male C57Bl6 mice): 15 min | t1/2 elimination half-life, brain ([4]; male C57Bl6 mice): 39 min | t1/2 elimination half-life, plasma ([4]; male C57Bl6 mice): 64.2 min | brain/plasma Cmax ratio ([4]; male, C57Bl6, mouse, brain/plasma, ip, 25 mg/kg): 0.31 | MRT ([4]; mouse, brain, ip, male C57Bl6 mice, read-out: MRT Mean Residence Time, brain): 57 min | Cmax ([4]; mouse, plasma, ip, male C57Bl6 mice): 1570 ng/mL | MRT ([4]; mouse, plasma, ip, male C57Bl6 mice, read-out: MRT Mean Residence Time, plasma): 93.6 min | brain sections, CD45 immunostain [5]: no signs of inflammation | brain sections, GFAP immunostain [5]: no signs of gliosis | brain sections, H&E [5]: did not show any signs of toxicity | brain sections, LFB-PAS stain [5]: no signs of demyelination | kidney sections, H&E [5]: no toxicity | kidney sections, PAS stain [5]: did not show any abnormalities in the glomerular basement membrane | kidney sections, trichrome stain [5]: no fibrosis | liver sections, H&E [5]: did not show any signs of toxicity | liver sections, trichrome stain [5]: no fibrosis or cirrhotic liver disease | muscle sections, H&E [5]: no signs of toxicity | muscle sections, trichrome stain [5]: no muscle fibrosis
